In US6787550B1, “Indole derivatives and their use for the treatment of osteoporosis amongst other applications” (Nikem Research S.r.l., priority 1999, dated 2004):

System: osteoclast proton pump
Conditions: avian osteoclast membrane vesicles; literature background; cited from earlier work

| SMILES | inhibition of proton transport |
| --- | --- |
| [Na+].[Na+].[Na+].[O]=[V]([O-])([O-])[O-] [sodium orthovanadate] | not inhibited |
| CO/C1=C\C(C)=C\[C@@H](C)[C@@H](O)[C@@H](C)C/C(C)=C/C=C/[C@H](OC)[C@@H]([C@@H](C)[C@@H](O)[C@H](C)[C@@]2(O)C[C@@H](O)[C@H](C)[C@@H](C(C)C)O2)OC1=O [bafilomycin A1] | inhibited |
| Cc1nc2c(OCc3ccccc3)cccn2c1CC#N [SCH 28080] | not inhibited |
| CCN1C(=O)C=CC1=O [N-ethylmaleimide (NEM), N-ethylmaleimide] | inhibited |
| C[C@@H]1O[C@@H](O[C@H]2C[C@@H](O)[C@]3(CO)[C@H]4[C@H](O)C[C@]5(C)[C@@H](C6=CC(=O)OC6)CC[C@]5(O)[C@@H]4CC[C@]3(O)C2)[C@H](O)[C@H](O)[C@H]1O [ouabain] | not inhibited |

System: osteoclast cultures
Conditions: literature background; cited from earlier work

| SMILES | inhibition of bone resorption |
| --- | --- |
| CO/C1=C\C(C)=C\[C@@H](C)[C@@H](O)[C@@H](C)C/C(C)=C/C=C/[C@H](OC)[C@@H]([C@@H](C)[C@@H](O)[C@H](C)[C@@]2(O)C[C@@H](O)[C@H](C)[C@@H](C(C)C)O2)OC1=O [bafilomycin A1] | able to inhibit bone resorption |

System: not given
Conditions: not given

| melting point [°C] | SMILES |
| --- | --- |
| 220 | CC1(C)CC(NC(=O)c2ccc(-c3cc4cc(Cl)c(Cl)cc4[nH]3)c(OCc3ccccc3)c2)CC(C)(C)N1 [Example 2, 4-(5,6-Dichloro-1H-indol-2-yl)-3-benzyloxy-N-(2,2,6,6-tetramethylpiperidin-4-yl)-benzamide] |
| > 270 | CC1(C)CC(NC(=O)c2ccc(-c3cc4cc(Cl)c(Cl)cc4[nH]3)c(O)c2)CC(C)(C)N1 [Example 3, 4-(5,6-Dichloro-1H-indol-2-yl)-3-hydroxy-N-(2,2,6,6-tetramethylpiperidin-4-yl)-benzamide] |
| > 250 | CCCOc1cc(C(=O)NC2CC(C)(C)NC(C)(C)C2)ccc1-c1cc2cc(Cl)c(Cl)cc2[nH]1 [Example 4, 4-(5,6-Dichloro-1H-indol-2-yl)-3-propoxy-N-(2,2,6,6-tetramethylpiperidin-4-yl)benzamide] |
